# Where two headings read alike, the source gives them in different places.
# Tests used:
# [1] = after an oral dose; cited from earlier work
# [2] = cited from earlier work
# [3] = High fat diet feeding experiments in rats (cream chow with orlistat, with or without polymer or lipid granulate); assay type: in vivo, male wistar rats; conditions: Ex. 3.2: four rats, cream chow 50% fat with added orlistat 0.6 mg/g chow, seven days
# Experimental: Animals (male rats) were kept in cages on standard animal bedding (two animals per cage or individual housing) and were provided with ad libitum access to food and water. Animal food was provided as pellets in a pellet rack or as a cream or as granulate powder each filled in a container attached to the inside of the cage.
# Body weight was recorded at beginning and end of experiments. Food consumption was documented daily except for weekends. Experiments were performed according to German laws of animal protection.
# Rodent chow was purchased from ssniff Spezialdiaten GmbH, Germany; poly(acrylic acid) (PAA, Carbopol® 971 P NF) was obtained from the Lubrizol Corporation, USA; and HPMC (AnyAddy®) was obtained from Harke Pharma, Germany. Orlistat (Hexal, Germany) was purchased in a local pharmacy. Hard fat/tripalmitin (Dynasan® 116), triglyceride (Witepsol® E85), glycerol monooleate (Imwitor®990), and Xanthan were obtained from NRC/Jungbunzlauer, Germany. Glycerol monolaurate (GML 90 food) was obtained from Mosselman, Belgium. Resistant dextrin (Nutriose® FB06) was obtained from Barentz, Germany or Barentz, Netherlands.
compound,measurement,setting,value
CCCCCCCCCCC[C@@H](C[C@@H]1OC(=O)[C@H]1CCCCCC)OC(=O)[C@H](CC(C)C)NC=O [orlistat],amount absorbed systemically,[1],Only trace amounts
same,dietary fat prevented from being absorbed,[2]; standard over-the-counter dose of 60 mg,about 25%
same,dietary fat prevented from being absorbed,[2]; standard prescription dose of 120 mg three times daily before meals,approximately 30%
same,body weight lost (±SD),[3],2.5±1.4%
same,mean daily food intake,[3],23.6 g

# — patent US20180185327A1, “FORMULATION COMPRISING PARTICLES AND A LIPASE INHIBITOR” (PERORA GMBH, priority 2015, published 2018)
